From publication PMC8899474, “Discovery and Characterization of the Key Constituents in Ginkgo biloba Leaf Extract With Potent Inhibitory Effects on Human UDP-Glucuronosyltransferase 1A1” (Frontiers in Pharmacology, 2022)

How the values were obtained:
hUGT1A1 [1] = target: T1, hUGT1A1 (Homo sapiens, UniProt P22309); test: UGT1A1 inhibition assay in living HeLa-UGT1A1 cells (NHPN-O-glucuronidation, LC-FD); assay type: cell-based; parameters: expressed in transfected cells; host or cells: HeLa cells, stably transduced with lentivirus (HeLa-UGT1A1); conditions: for inhibition of intracellular hUGT1A1: high concentration (100 μM), HeLa-UGT1A1 cells
T1 sequence (P22309 26-533): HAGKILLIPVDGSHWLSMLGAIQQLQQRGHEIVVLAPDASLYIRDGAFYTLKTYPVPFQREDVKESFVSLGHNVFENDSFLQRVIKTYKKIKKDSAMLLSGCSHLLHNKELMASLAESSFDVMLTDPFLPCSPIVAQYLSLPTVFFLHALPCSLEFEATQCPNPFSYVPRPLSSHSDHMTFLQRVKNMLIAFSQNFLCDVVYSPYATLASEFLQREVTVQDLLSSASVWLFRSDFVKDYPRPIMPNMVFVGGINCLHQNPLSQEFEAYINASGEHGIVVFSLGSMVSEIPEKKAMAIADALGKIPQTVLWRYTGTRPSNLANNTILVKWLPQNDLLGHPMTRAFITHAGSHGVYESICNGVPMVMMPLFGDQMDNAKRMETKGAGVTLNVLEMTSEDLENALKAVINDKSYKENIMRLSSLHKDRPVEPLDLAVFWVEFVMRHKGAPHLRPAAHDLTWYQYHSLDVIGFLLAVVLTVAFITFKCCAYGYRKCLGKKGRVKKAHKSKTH
Procedure: A RF-20A FD detector coupled UFLC system (Shimadzu, Kyoto, Japan), equipped with a DGU-20A5R vacuum degasser, two LC-20ADXR pumps, a SIL-20ACXR autosampler and a CTO-20A column oven, was used to quantify NHPN and NHPNG. Chromatographic separation of analytes was carried out on a shim-pack Acchrom HC-C18 analytical column (2.0 × 150 mm, 4.6 μm particle size), while the column temperature was kept at 40°C. The flow rate was kept at 0.5 ml/min. The mobile phase consisted of acetonitrile (A) and water containing 0.2% formic acid (B). The gradient of the mobile phase was as follows: 0–0.5 min, 80–60% B; 0.5–3.5 min, 60–5% B; 3.5–5 min, 5% B; 5–7.5 min, equilibration with 80% B. The excitation wavelength and the emission wavelength were set at 370 and 520 nm, respectively for detection.
The inhibitory effects of herbal products and chemical constituents of GBL extract on UGT1A1 were investigated in living HeLa-UGT1A1 cells by using a specific fluorescent substrate, NHPN, as a probe. HeLa-UGT1A1 cells were cultured at 37°C in 5% CO2 in Modified Eagle’s Medium (MEM) containing 0.1% antibiotic-antimycoticmix, supplemented with 10% fetal bovine serum (FBS). HeLa-UGT1A1 cells were seeded in 96-well plates and cultured for 24 h. The cells were incubated in the medium containing different kinds of herbal products (final concentration, 10 μg/ml) or chemical constituents of GBL extract (diluted to different concentration by DMSO with the final concentration of 1% DMSO in each incubation) for 60 min at 37°C under 5% CO2, and co-incubated with NHPN (final concentration, 50 μM) for another 60 min. […] The validation data for this cell-based flourescence assay can be found in our previous publication ([Zhu et al., 2020]).

hUGT1A1 [2] = target: T1, hUGT1A1; test: UGT1A1 inhibition assay and inhibition kinetics in human liver microsomes (NHPN-O-glucuronidation); assay type: biochemical; conditions: NHPN-O-glucuronidation in HLM
hUGT1A1 [3] = target: T1, hUGT1A1; test: as above; assay type: biochemical; conditions: NHPN-O-glucuronidation in HLM; for Ki: second plot of Lineweaver-Burk slopes
Procedure: A set of incubations by changing both the fluorescent substrate concentration and the inhibitor concentration were performed to determine the inhibition kinetic modes and the corresponding inhibition constant (K i ) values. The incubation and analytical sample preparation were conducted as described previously. Goodness-of-fit parameter and Akaike’s Information Criterion (AIC) were employed to select the most appropriate inhibition kinetic modes from the following three inhibition modes including competitive inhibition Eq. 1, noncompetitive inhibition Eq. 2, or mixed inhibition Eq. 3, V=Vmax×[S]/Km×(1+[I]/Ki)+[S] (1) V=Vmax×[S]/(Km+[S])×(1+[I]/Ki) (2) V=Vmax×[S]/Km×(1+[I]/Ki)+[S]×(1+[I]/αKi) (3)
Here, V is the turnover of the glucuronidation reaction; V max is the maximum velocity; S and I are the substrate and inhibitor concentrations, respectively; K m is the Michaelis constant (substrate concentration at 0.5 V max ); K i is the inhibition constant that describes the affinity of the inhibitor towards hUGT1A1. The corresponding K i value of each tested inhibitor is calculated by utilizing the slopes of second plot from Lineweaver-Burk plot versus inhibitor concentrations.

hUGT1A1 [4] = target: T1, hUGT1A1; test: UGT1A1 inhibition assay with recombinant UGT1A1 (NHPN-O-glucuronidation)
Procedure: NHPN was used for evaluating the inhibitory effects of GBL extract on HLM. A typical incubation mixture with a total volume of 200 μl consisted of 50 mM Tris-HCl (pH = 7.4), 5 mM MgCl2, 2 mM UDPGA, NHPN (diluted by DMSO, 5 μM) and the enzymes. […] The final concentration of DMSO in the incubation mixture was less than 1%. […] A concentration of 5 μg/ml was used when recombinant UGT1A1 was the enzyme source. After pre-incubation for 3 min at 37°C, UDPGA was added to the incubation mixture to initiate the reaction. After 60 min incubation at 37°C, the reaction was terminated by adding 200 μl ice-cold acetonitrile, and the incubation mixture was kept on ice. After centrifugation at 20,000×g for 20 min at 4°C, 5 μl aliquots of the supernatant was taken for LC-FD analysis.
The residual activity of hUGT1A1 was determined as follows: Residual activity (%) = (the fluorescence intensity of NHPNG generated in the incubations with inhibitor)/(the fluorescence intensity of NHPNG generated in the incubations without inhibitor) × 100%. A set of incubations with the same fluorescent substrate concentration and different inhibitor concentrations were performed to determine the half maximal inhibition concentration (IC50).

[5] = hUGT1A1-catalyzed NHPN-O-glucuronidation in HeLa-UGT1A1 cells, read-out: IC50

IC50 (hUGT1A1 [1]; [5]) [nM]	IC50 (hUGT1A1 [2]) [nM]	Molecule	further results
3290 ± 470	410 ± 34	O=c1cc(-c2ccc(O)c(-c3c(O)cc(O)c4c(=O)cc(-c5ccc(O)cc5)oc34)c2)oc2cc(O)cc(O)c12 [Amentoflavone]	–
1380 ± 190	–	O=c1c(O)c(-c2ccc(O)cc2)oc2cc(O)cc(O)c12 [Kaempferol]	–
75 ± 9	150 ± 14	COc1cc(O)c2c(=O)cc(-c3ccc(OC)c(-c4c(O)cc(O)c5c(=O)cc(-c6ccc(O)cc6)oc45)c3)oc2c1 [Ginkgetin]	Inhibition mode (hUGT1A1 [3]): Mixed; Ki (hUGT1A1 [3]): 70 nM; IC50 (hUGT1A1 [4]): 100 to 290 nM
–	–	Ginkgolide C	inhibition of intracellular hUGT1A1 (hUGT1A1 [1]): did not inhibit
2050 ± 240	–	O=c1c(O)c(-c2ccc(O)c(O)c2)oc2cc(O)cc(O)c12 [Quercetin]	–
1890 ± 240	–	O=c1cc(-c2ccc(O)cc2)oc2cc(O)cc(O)c12 [Apigenin]	–
1410 ± 170	–	O=c1cc(-c2ccc(O)c(O)c2)oc2cc(O)cc(O)c12 [Luteolin]	–
160 ± 20	670 ± 85	COc1ccc(-c2cc(=O)c3c(O)cc(O)c(-c4cc(-c5cc(=O)c6c(O)cc(O)cc6o5)ccc4OC)c3o2)cc1 [Isoginkgetin]	Inhibition mode (hUGT1A1 [3]): Mixed; Ki (hUGT1A1 [3]): 740 nM; IC50 (hUGT1A1 [4]): 100 to 290 nM
1500 ± 460	–	COc1cc(O)c2c(=O)cc(-c3ccc(O)cc3)oc2c1 [Genkwanin]	–
–	–	CC(C)(C)[C@]1(O)CC2OC(=O)CC23C(=O)OC2OC(=O)[C@H](O)C231 (stereo partly shown) [Bilobalide]	IC50 (hUGT1A1 [1]): > 100000 nM; inhibition of intracellular hUGT1A1 (hUGT1A1 [1]): did not inhibit
–	–	Ginkgolide B	inhibition of intracellular hUGT1A1 (hUGT1A1 [1]): did not inhibit
410 ± 48	200 ± 23	COc1ccc(-c2cc(=O)c3c(O)cc(O)cc3o2)cc1-c1c(O)cc(O)c2c(=O)cc(-c3ccc(O)cc3)oc12 [Bilobetin]	Inhibition mode (hUGT1A1 [3]): Mixed; Ki (hUGT1A1 [3]): 180 nM; IC50 (hUGT1A1 [4]): 100 to 290 nM
110 ± 9	280 ± 36	COc1ccc(-c2cc(=O)c3c(O)cc(O)c(-c4cc(-c5cc(=O)c6c(O)cc(OC)cc6o5)ccc4OC)c3o2)cc1 [Sciadopitysin]	Inhibition mode (hUGT1A1 [3]): Mixed; Ki (hUGT1A1 [3]): 670 nM

Molecule	IC50 (hUGT1A1 [1]; [5]) [nM]	IC50 (hUGT1A1 [2]) [nM]	further results
O=c1c(O)c(-c2cc(O)c(O)c(O)c2)oc2cc(O)cc(O)c12 [Myricetin]	64600 ± 12200	–	–
C[C@@H]1C(=O)O[C@H]2C[C@@]34[C@H]5C[C@@H](C(C)(C)C)[C@]36[C@@H](OC(=O)[C@@H]6O)O[C@@]4(C(=O)O5)[C@]21O [Ginkgolide A]	> 100000	–	inhibition of intracellular hUGT1A1 (hUGT1A1 [1]): did not inhibit
COc1cc(-c2oc3cc(O)cc(O)c3c(=O)c2O)ccc1O [Lsorhamnetin, isorhamnetin]	1680 ± 340	–	–
